{
  "source": "paper PMC11887673",
  "about": "“Malformin C preferentially kills glioblastoma stem‐like cells via concerted induction of proteotoxic stress and autophagic flux blockade” (Molecular Oncology, 2024)",
  "key": {"NCH421k [1]": {"tested_on": "NCH421k", "test": "Assessment of synergy, combination cell viability (CellTiter-Glo)", "type": "cell-based, human", "protocol": "NCH421k cells were seeded in 96‐well white plates with 8500 cells per well in 40 μL medium. To determine control curves, cells were treated with 50 μL of a 2× concentration of TMZ or CQ and 10 μL of medium and incubated for 48 h. For drug combinations, cells were treated with 10 μL of a 10× concentration of malformin C and with 50 μL of a 2× concentration of TMZ or CQ. Cell viability was determined after 48 h using the CellTiter‐Glo® assay according to the manufacturer's instructions. Synergy was determined using […] at https://synergyfinder.org/ [35]."}, "BDF1 mice": {"tested_on": "BDF1 mice", "conditions": "cited from earlier work", "protocol": "Malformin C has been previously reported to induce fatal toxicity at doses of over 0.9 mg·kg^−1 in BDF1 mice, likely due to an acute inflammatory response. […] In a pharmacokinetic study, malfo ..."}, "fibroblasts (BJ)": {"tested_on": "fibroblasts (BJ)", "test": "Caspase 3/7 activation (Caspase Glo)", "type": "cell-based, human", "conditions": "50 nM, 8 h, n = 3", "protocol": "(§1) A total of 5000 cells were seeded into white 96‐well plates in a volume of 50 μL medium. Malformin C or Az‐mal. C was added to the medium at the indicated concentrations and incubated for the indicated times. Caspase 3/7 activity was measured using the Caspase Glo assay (Promega), according to the manufacturer's protocol."}, "NCH421k [2]": {"tested_on": "NCH421k", "test": "Caspase 3/7 activation (Caspase Glo)", "type": "cell-based, human", "conditions": "50 nM, within 6–8 h, n = 3", "protocol": "as §1"}, "NCH441": {"tested_on": "NCH441", "test": "Caspase 3/7 activation (Caspase Glo)", "type": "cell-based, human", "conditions": "50 nM, within 6–8 h, n = 3", "protocol": "as §1"}, "[3]": {"tested_on": "primary astrocytes (pAstro)", "test": "Caspase 3/7 activation (Caspase Glo)", "type": "cell-based, human", "conditions": "50 nM, 8 h, n = 3", "protocol": "as §1"}, "[4]": {"tested_on": "NCH421k GSCs expressing luciferase", "test": "In vivo tumor propagation, flank xenograft", "design": "species or system NSG mice", "protocol": "(§2) NCH421k GSCs were transduced with lentiviral particles carrying the pLenti PGK V5‐LUC Neo plasmid, which was a gift from Eric Campeau (Addgene plasmid # 21471) and transduced cells were selected using 400 μg·mL^−1 G418. Six‐week‐old female NOD.Cg‐Prkdc ^ scid Il2rg ^ tm1Wjl /SzJ (NOD‐SCIDγ) mice were obtained from the animal facility at the DKFZ. All animal experiments were performed according to animal welfare regulations and were approved by the responsible authorities (Regierungspräsidium Karlsruhe, approval number G289‐14). Animals were housed in a temperature‐controlled vivarium on a 12 h : 12 h light–dark cycle with ad libitum food and water, and all animals were monitored daily for health status and tumor‐related symptoms. […] Tumor growth was monitored using an IVIS Lumina Preclinical in vivo IMAGING SYSTEM AND LIVING IMAGE Software (version 2.50.1) (Perkin Elmer, Rodgau, Germany) and volume measurement using calipers once a week for 7 weeks, or until the tumor reached a volume of 500 mm^3.\n(§3) Malformin C has been previously reported to induce fatal toxicity at doses of over 0.9 mg·kg^−1 in BDF1 mice, likely due to an acute inflammatory response. […] Seven days later, after engraftment of the cells was confirmed by the appearance of a luminescence signal, mice were treated with malformin C or DMSO (0.5 mg·kg^−1 3 × per week) for 37 days. […]"}, "[5]": {"tested_on": "NOD scid gamma (NSG) mice", "test": "Toxicity and tolerability of repeated doses", "type": "in vivo, mouse", "protocol": "as §2, §3"}, "[6]": {"test": "Pharmacokinetics in plasma and blood brain barrier penetration after i.v. administration", "type": "in vivo", "conditions": "RjOrl:Swiss CD-1, mouse, iv, male CD-1 mice, 0.5 mg·kg^−1 i.v., LC–MS", "protocol": "Pharmacokinetic (PK) parameters in plasma and blood brain barrier penetration after intravenous administration of malformin C were evaluated by Pharmacelsus GmbH. Nine adult male RjOrl : Swiss CD‐1 mice were injected i.v. with 0.5 mg·kg^−1 malformin C. K‐EDTA plasma was obtained from the retrobulbar venous plexus under isoflurane anesthesia. The plasma samples were prepared within 45 min after collection, frozen at −20 °C, and stored at this temperature until processed for LC–MS analysis. For brain collection, mice were sacrificed by cervical dislocation, immediately after the last blood sample was obtained. Brains were dissected, frozen, and stored at −20 °C. PK analysis was performed using […] 5.0 Software, Allersberg, Germany. All experimental procedures were approved by and conducted in accordance with the regulations of the local Animal Welfare authorities (Landesamt für Gesundheit und Verbraucherschutz, Abteilung Lebensmittel‐und Veterinärwesen, Saarbrücken)."}, "GSCs": {"tested_on": "GSCs", "test": "Cell viability, GSCs compared with normal or other cells", "type": "cell-based, human", "conditions": "48 h, CellTiter-Glo", "description": "GSC lines NCH421k, NCH441, NCH644, NCH711d, and NCH705 were derived from newly diagnosed GB patients who underwent surgical resection according to the research proposals approved by the Institutional Review Board at the Medical Faculty of Heidelberg (license: Neurosurgery brain tissue 005/2003; samples collected between 2003 and 2010 at Heidelberg University Hospital from patients who gave informed written consent) and performed in accordance to the Declaration of Helsinki. The cells were cultivated in serum‐free stem cell medium up to maximum passage 60 as previously described. Human astrocytes originating from fetal cerebral cortex were purchased from ScienCell, Research Laboratories, Carlsbad, CA, USA (#1800) and cultured in DMEM (Sigma‐Aldrich, Steinheim, Germany) supplemented with 10% (v/v) FCS (Merck Millipore, Darmstadt, Germany), 1 mM sodium pyruvate, 1 × GlutaMAX, and 1 × N‐2 supplement (all Life Technologies, Darmstadt, Germany). Human fetal neural stem cells (HFNSCs) were kindly provided by Dr C Watts at the Department of Clinical Neurosciences, University of Cambridge. Tissue procurement was approved by the Cambridge Local Regional Ethics committee and in accordance with section 16(e) (ii) of the United Kingdom Human Tissue Act and the Declaration of Helsinki. They were established from 12‐ to 14‐week‐old human postmortem fetal tissue as described by Iovino et al. The cells were cultured as neurospheres in neural stem cell medium (DMEM/F‐12 medium, 2% (v/v) B27 supplement, at 20 ng·mL^−1 each of bFGF and EGF, 2.5 μg·mL^−1 heparin). BJ cells (RRID: CVCL_3653) (human fibroblasts) were purchased from ATCC and cultivated in DMEM low glucose supplemented with 10% FCS. […]\nCells were seeded in 96‐well plates at a density of 8500 cells per well. […] Cell viability was assessed by the CellTiter‐Glo® (Promega) luminescent cell viability assay. […] Data were normalized to the vehicle control, and four parameter logistic curves were fitted and IC50 values calculated using […] […]"}},
  "note": "Bridge positions count the residues as written; N and C are the ends. Square brackets hold non-standard residues; d marks the D form. Peptide text beside a SMILES is read from it.",
  "data": [
    {"compound": "CCN(CC)CCCC(C)Nc1ccnc2cc(Cl)ccc12", "note": "(stereo not shown) [CQ, chloroquine]", "values": [
      {"measurement": "synergy with malformin C (SynergyFinder, ZIP synergy score)", "setting": "NCH421k [1]", "result": "much stronger"},
      {"measurement": "inhibition at 23.7 µM", "setting": "NCH421k [1]; Homo sapiens, 48 h, CQ 23.7 μM, Malformin C 0 nM, n = 3", "result": 17, "unit": "%"},
      {"measurement": "inhibition at 31.6 µM", "setting": "NCH421k [1]; Homo sapiens, 48 h, CQ 31.6 μM, Malformin C 0 nM, n = 3", "result": 32, "unit": "%"},
      {"measurement": "inhibition at 42.2 µM", "setting": "NCH421k [1]; Homo sapiens, 48 h, CQ 42.2 μM, Malformin C 0 nM, n = 3", "result": 33, "unit": "%"},
      {"measurement": "inhibition at 75 µM", "setting": "NCH421k [1]; Homo sapiens, 48 h, CQ 75 μM, Malformin C 0 nM, n = 3", "result": 99, "unit": "%"}
    ]},
    {"compound": "Cn1nnc2c(C(N)=O)ncn2c1=O", "note": "[TMZ, temozolomide]", "values": [
      {"measurement": "synergy with malformin C (SynergyFinder, ZIP synergy score)", "setting": "NCH421k [1]", "result": "synergistic effect"},
      {"measurement": "inhibition at 80 µM", "setting": "NCH421k [1]; Homo sapiens, 48 h, TMZ 80 μM, Malformin C 0 nM, n = 3", "result": 2, "unit": "%"},
      {"measurement": "inhibition at 160 µM", "setting": "NCH421k [1]; Homo sapiens, 48 h, TMZ 160 μM, Malformin C 0 nM, n = 3", "result": 6, "unit": "%"},
      {"measurement": "inhibition at 310 µM", "setting": "NCH421k [1]; Homo sapiens, 48 h, TMZ 310 μM, Malformin C 0 nM, n = 3", "result": 6, "unit": "%"},
      {"measurement": "inhibition at 500 µM", "setting": "NCH421k [1]; Homo sapiens, 48 h, TMZ 500 μM, Malformin C 0 nM, n = 3", "result": 22, "unit": "%"},
      {"measurement": "inhibition at 1000 µM", "setting": "NCH421k [1]; Homo sapiens, 48 h, TMZ 1000 μM, Malformin C 0 nM, n = 3", "result": 47, "unit": "%"}
    ]},
    {"compound": "CC(C)C[C@@H]1NC(=O)[C@@H](CC(C)C)NC(=O)[C@H](C(C)C)NC(=O)[C@H]2CSSC[C@@H](NC1=O)C(=O)N2", "note": "[malformin C] (cyclo(L[dC][dC]V[dL]); disulfide 2-3)", "values": [
      {"measurement": "doses inducing fatal toxicity", "setting": "BDF1 mice", "result": "over 0.9 mg·kg^−1"},
      {"measurement": "caspase 3/7 activation", "setting": "fibroblasts (BJ)", "result": "not"},
      {"measurement": "caspase 3/7 activation", "setting": "NCH421k [2]", "result": "significantly activated caspases"},
      {"measurement": "caspase 3/7 activation", "setting": "NCH441", "result": "significantly activated caspases"},
      {"measurement": "caspase 3/7 activation", "setting": "[3]", "result": "not"},
      {"measurement": "weights of the mice", "setting": "[4]; 0.5 mg·kg^−1 i.p. 3 × per week, NSG mice, during the study", "result": "did not affect the weights of the mice"},
      {"measurement": "tumor growth (luminescence, caliper volume)", "setting": "[4]; flank of NSG mice, 0.5 mg·kg^−1 i.p. 3 × per week for 37 days, monitored 49 days, n = 9 vs 8 DMSO", "result": "dramatically suppressed tumor growth"},
      {"measurement": "tolerability", "setting": "[5]; 0.5 mg·kg^−1 i.p. three times per week, NSG mice", "result": "tolerated well"},
      {"measurement": "repeated doses causing intolerable toxicity", "setting": "[5]; immune-deficient NSG mice", "result": "over 0.9 mg·kg^−1"},
      {"measurement": "level at time molar at 1 h", "setting": "[6]; brain, by 1 h, read-out: equivalent molar concentration in the brain", "result": "~1.9", "unit": "nM"},
      {"measurement": "half-life", "setting": "[6]; K-EDTA plasma, n=3 mice per time point", "result": 5.8, "unit": "h"}
    ]},
    {"compound": "CN[C@@H]1C[C@H]2O[C@@](C)([C@@H]1OC)n1c3ccccc3c3c4c(c5c6ccccc6n2c5c31)C(=O)NC4", "note": "[staurosporine]", "values": [
      {"measurement": "loss of viability in GSCs compared with normal cells", "setting": "GSCs", "result": "similarly"}
    ]},
    {"compound": "malformin A1", "values": [
      {"measurement": "loss of viability in GSCs compared with normal cells", "setting": "GSCs", "result": "more potent against GSCs than normal cells"}
    ]},
    {"compound": "tunicamycin", "values": [
      {"measurement": "loss of viability in GSCs compared with normal cells", "setting": "GSCs", "result": "not more sensitive than astrocytes"}
    ]}
  ]
}
